Assay results taken from US20240300934A1, “COMPOUNDS FOR MODULATING MYCOBACTERIUM TUBERCULOSIS RESPONSE” (priority 2021, published 2024).
≈ marks a conversion by molar mass, not a printed value. Read-outs that look alike come from different tables or passages of the source.

Experiments:
[1] = system: rv2390c′::GFP reporter Mtb strain; type: cell-based, Mycobacterium tuberculosis
human CYP 450 3A4/5 = experiment: Human cytochrome P450 inhibition, 3A4/5; type: in vitro ADME; conditions: 10 μM
[2] = Mouse pharmacokinetics, single oral dose; type: in vivo, CD-1 mice
Experimental: Blood samples were collected in K2EDTA coated tubes pre-dose, 0.5, 1, 3 and 5 hrs post-dose, placed on ice, and centrifuged to recover plasma. The recovered plasma was kept at −80° C. as needed prior to analysis, which was performed as previously described (Wang et al, 2020). In brief, a Sciex Applied Biosystems Qtrap 4000 triple-quadrupole mass spectrometer coupled to an Agilent 1260 HPLC system was used for HPLC coupled to tandem mass spectrometry (LC-MS/MS) quantitative analysis of the samples, with chromatography attained using an Agilent Zorbax SB-C8 column (2.1×30 mm; particle size, 3.5 μm) and a reverse phase gradient elution. The aqueous mobile phase consisted of Milli-Q deionized water with 0.1% formic acid (A), while the organic mobile phase was 0.1% formic acid in acetonitrile (B). The gradient set-up was as follows: 5-90% B over 2 mins, 1 min at 90% B, then an immediate drop to 5% B and an additional 1 min at 5% B. Quantification of molecules was carried out via multiple-reaction monitoring of parent/daughter transitions in electrospray positive-ionization mode, and sample analyses accepted if quality control and standard samples had concentrations within 20% of the nominal concentration. Preparation of compounds for generation of standard curves and quality control spiking solutions were performed as previously described (Wang et al, 2020). Data were processed using Analyst software (Version 1.6.2; Applied Biosystems Sciex).

[3] = Kinetic aqueous solubility in pH 7.4 PBS; type: physicochemical; conditions: read-out: Kinetic Aqueous Solubility S
Experimental: (§1) Assays examining mouse and human liver microsomal stability, kinetic aqueous solubility, mouse and human plasma protein binding and stability, and human cytochrome P450 inhibition characteristics of the compounds were run by BioDuro, Incorporated, using standard protocols as previously described (Wang et al, 2020). hERG inhibition assays were also performed by BioDuro, Incorporated.

human CYP 450 2C19 = human CYP 450 2C19 (Homo sapiens, UniProt P33261); experiment: Human cytochrome P450 inhibition, 2C19; type: in vitro ADME; conditions: 10 μM
Sequence of human CYP 450 2C19 (P33261 whole entry): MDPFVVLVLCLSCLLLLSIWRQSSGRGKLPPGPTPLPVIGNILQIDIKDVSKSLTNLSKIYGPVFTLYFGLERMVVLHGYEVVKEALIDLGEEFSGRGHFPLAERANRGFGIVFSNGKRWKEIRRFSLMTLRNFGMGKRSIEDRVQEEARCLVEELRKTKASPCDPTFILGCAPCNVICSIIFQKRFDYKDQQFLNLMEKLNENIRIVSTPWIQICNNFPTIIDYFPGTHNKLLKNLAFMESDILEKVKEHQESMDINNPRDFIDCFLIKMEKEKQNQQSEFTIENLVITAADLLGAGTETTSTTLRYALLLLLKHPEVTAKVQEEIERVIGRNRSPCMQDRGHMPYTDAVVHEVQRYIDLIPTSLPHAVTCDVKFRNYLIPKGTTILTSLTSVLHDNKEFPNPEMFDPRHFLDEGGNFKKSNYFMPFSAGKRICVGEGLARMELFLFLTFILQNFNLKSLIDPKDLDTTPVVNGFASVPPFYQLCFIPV

[4] = Human plasma protein binding; type: in vitro ADME
Experimental: as §1

human CYP 450 2C9 = human CYP 450 2C9 (Homo sapiens, UniProt P11712); experiment: Human cytochrome P450 inhibition, 2C9; type: in vitro ADME; conditions: 10 μM
Sequence of human CYP 450 2C9 (P11712 whole entry): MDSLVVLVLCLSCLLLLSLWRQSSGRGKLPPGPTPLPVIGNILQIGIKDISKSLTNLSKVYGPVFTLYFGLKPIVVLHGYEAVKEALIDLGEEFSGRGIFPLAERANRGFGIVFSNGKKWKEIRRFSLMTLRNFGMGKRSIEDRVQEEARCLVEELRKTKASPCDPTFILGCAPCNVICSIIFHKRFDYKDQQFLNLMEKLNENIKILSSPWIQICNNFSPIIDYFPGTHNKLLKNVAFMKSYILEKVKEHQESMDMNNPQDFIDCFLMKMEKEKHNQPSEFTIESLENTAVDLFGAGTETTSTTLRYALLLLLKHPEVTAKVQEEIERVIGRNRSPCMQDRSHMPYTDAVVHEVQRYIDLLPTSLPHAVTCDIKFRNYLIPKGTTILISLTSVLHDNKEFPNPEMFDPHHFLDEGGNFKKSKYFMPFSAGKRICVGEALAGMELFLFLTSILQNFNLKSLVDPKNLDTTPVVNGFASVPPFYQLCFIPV

[5] = Mouse plasma protein binding; type: in vitro ADME
Mtb in J774 cells = experiment: Mtb growth in J774 macrophage-like cells (mKO fluorescence); type: cell-based, Mycobacterium tuberculosis
Outline: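 J774 cells infected with log-phase mKO-expressing Mtb (OD600=0.2 suspension), compounds dosed from 20 μM final in two-fold dilutions to 0.039 μM, or single 10 μM in 96-well format; 37° C., 5% CO2, 6 days. mKO fluorescence read, growth expressed as percent of DMSO control.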

Mtb = Mtb growth assay in cholesterol media (OD600); type: cell-based, Mycobacterium tuberculosis
[6] = Human liver microsomal stability; type: in vitro ADME
human CYP 450 2D6 = human CYP 450 2D6 (Homo sapiens, UniProt P10635); experiment: Human cytochrome P450 inhibition, 2D6; type: in vitro ADME; conditions: 10 μM
Sequence of human CYP 450 2D6 (P10635 whole entry): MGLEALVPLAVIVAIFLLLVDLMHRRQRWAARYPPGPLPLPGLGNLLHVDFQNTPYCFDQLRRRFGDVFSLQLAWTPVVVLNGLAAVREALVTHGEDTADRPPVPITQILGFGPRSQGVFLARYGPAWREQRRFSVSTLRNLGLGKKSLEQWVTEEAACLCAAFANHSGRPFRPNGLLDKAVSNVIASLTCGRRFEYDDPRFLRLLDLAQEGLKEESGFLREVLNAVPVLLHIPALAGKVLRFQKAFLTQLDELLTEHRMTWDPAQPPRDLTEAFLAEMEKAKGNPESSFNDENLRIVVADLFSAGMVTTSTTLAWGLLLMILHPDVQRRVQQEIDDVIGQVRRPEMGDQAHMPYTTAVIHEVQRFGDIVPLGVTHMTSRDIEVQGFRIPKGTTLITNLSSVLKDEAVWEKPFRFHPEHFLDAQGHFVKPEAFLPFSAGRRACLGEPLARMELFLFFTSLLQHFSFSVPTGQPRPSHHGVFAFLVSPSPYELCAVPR

## CCSc1ncc(CN2CCN(c3nc4ccccc4o3)CC2)cn1 [Compound C6, 2-(4-((2-(ethylthio)pyrimidin-5-yl)methyl)piperazin-1-yl)benzo[d]oxazole]
[1]; 10 μM, 250 mM NaCl
  rv2390c′::GFP reporter signal upon Mtb exposure to high [Cl−] (in words): increased rv2390c′::GFP reporter signal
[1]; compared to C6
  rv2390c′::GFP Cl− response phenotype: Y
[1]; screen hits, high chloride (250 mM NaCl, pH 6.4)
  rv2390c′::GFP response phenotype: Increases induction in high
Human CYP 450 3A4/5
  % inhibition of CYP 3A4/5: < 1%
[2]; female, CD-1, mouse, single 25 mg/kg po dose, 5 h, lung vs plasma, read-out: Mouse PK Clung/Cplasma at t = 5 h
  Kp at 5 h: 0.88
[2]; single 5 mg/kg oral (po) dose, plasma, CD-1 mice (n=2)
  AUC0-5 h: 5481 ng·h/mL
[2]; single 25 mg/kg po dose, plasma, CD-1 mice
  Mouse PK AUC0-5h: 25713 ng·h/mL
[3]; PBS, pH 7.4, aqueous buffer, kinetic from dmso stock, Table 2
  solubility kinetic: 76.4 µM (≈ 27.2 µg/mL)
[3]; pH 7.4 phosphate buffered saline (PBS)
  solubility kinetic: 76.4 µM (≈ 27.2 µg/mL)
Human CYP 450 2C19
  % inhibition of CYP 2C19: 30.3%
[4]
  protein binding to human plasma: 99.2%
Human CYP 450 2C9
  % inhibition of CYP 2C9: 25.7%
[5]
  protein binding to mouse plasma: 97.0%
Mtb in J774 cells; 10 μM compound, J774.1 cells
  % Reduction of Intracellular Infection (J774.1 cells) at 10 μM cmpd: 54.2 ± 2.6%
Mtb in J774 cells; 10 μM, 6 days post-infection
  Mtb growth in J774 cells (in words): Mtb growth inhibition
Mtb in J774 cells; Mycobacterium tuberculosis, J774CELLS, J774, 144 h, read-out: % inhibition compared to Rif in J774 at 10 μM
  inhibition at 10 µM: 40.5 ± 0.6%
Mtb in J774 cells; Mycobacterium tuberculosis, J774CELLS, J774, 144 h, read-out: % inhibition compared to Rif in J774 at 20 μM
  inhibition at 20 µM: 53.6 ± 2.7%
Mtb in J774 cells; compared to C6
  Inhibition of Mtb growth in J774 cells phenotype: Y
Mtb; 10 μM, 4 mM acetate or 200 μM stearate
  effect of even chain fatty acids on growth inhibition in cholesterol media: rescue inhibition
Mtb; 10 μM, OD600
  Mtb growth in cholesterol media (in words): inhibited Mtb growth in cholesterol media
Mtb; 10 μM, additional odd chain carbon source
  effect of odd chain fatty acids on growth inhibition in cholesterol media: do not rescue inhibition
Mtb; 10 μM, vitamin B12 added
  effect of vitamin B12 on growth inhibition in cholesterol media: does not rescue inhibition
Mtb; compared to C6
  Growth inhibition in cholesterol media phenotype: Y
[6]
  t1/2 in human liver microsomes: 37.6 min
Human CYP 450 2D6
  % inhibition of CYP 2D6: 10.5%
